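Interpolation was linear, between the two tested concentrations surrounding the appropriate level; five concentrations were tested over 48 hours in 96-well plates. GI50 = concentration required for 50% inhibition of growth.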 The source made the active and inactive calls. Rule as the data show it: active = GI50 up to about 1.1 µM and inactive = higher.
What was measured:
Experiment in all cases: inhibition of tumour cell growth, NCI panel, 48 h
786-0 = system: 786-0
A498 = system: A498
A549 = system: A549
ACHN = system: ACHN
BT-549 = system: BT-549
CAKI-1 = system: CAKI-1
CCRF-CEM = system: CCRF-CEM
COLO 205 = system: COLO 205
DU-145 = system: DU-145
EKVX = system: EKVX
HCT-116 = system: HCT-116
HCT-15 = system: HCT-15
HL-60 = system: HL-60
HOP-62 = system: HOP-62
HOP-92 = system: HOP-92
HT-29 = system: HT-29
Hs-578T = system: Hs-578T
IGROV-1 = system: IGROV-1
K562 = system: K562
KM12 = system: KM12
LOX IMVI = system: LOX IMVI
M14 = system: M14
MCF7 = system: MCF7
MDA-MB-231 = system: MDA-MB-231
MDA-MB-435 = system: MDA-MB-435
MDA-N = system: MDA-N
MOLT-4 = system: MOLT-4
Malme-3M = system: Malme-3M
NCI-H226 = system: NCI-H226
NCI-H23 = system: NCI-H23
NCI-H460 = system: NCI-H460
NCI-H522 = system: NCI-H522
NCI/ADR-RES = system: NCI/ADR-RES
OVCAR-3 = system: OVCAR-3
OVCAR-4 = system: OVCAR-4
OVCAR-5 = system: OVCAR-5
OVCAR-8 = system: OVCAR-8
PC-3 = system: PC-3
RPMI-8226 = system: RPMI-8226
RXF 393 = system: RXF 393
SF-268 = system: SF-268
SF-295 = system: SF-295
SF-539 = system: SF-539
SK-MEL-28 = system: SK-MEL-28
SK-MEL-2 = system: SK-MEL-2
SK-MEL-5 = system: SK-MEL-5
SK-OV-3 = system: SK-OV-3
SN12C = system: SN12C
SNB-19 = system: SNB-19
SNB-75 = system: SNB-75
SR = system: SR
SW-620 = system: SW-620
T47D = system: T47D
TK-10 = system: TK-10
U-251 = system: U-251
UACC-257 = system: UACC-257
UACC-62 = system: UACC-62
HCC 2998 = system: HCC 2998
UO-31 = system: UO-31

Structure (SMILES): COc1ccc(-c2nc(N)c3ncn(C4OC(CO)C(O)C4O)c3n2)cc1 (centres undefined)
- GI50 (786-0): > 100 µM (inactive)
- GI50 (A498): > 100 µM (inactive)
- GI50 (A549): > 100 µM (inactive)
- GI50 (ACHN): > 100 µM (inactive)
- GI50 (BT-549): > 100 µM (inactive)
- GI50 (CAKI-1): > 100 µM (inactive)
- GI50 (CCRF-CEM): > 100 µM (inactive)
- GI50 (COLO 205): > 100 µM (inactive)
- GI50 (DU-145): > 100 µM (inactive)
- GI50 (EKVX): > 100 µM (inactive)
- GI50 (HCT-116): > 100 µM (inactive)
- GI50 (HCT-15): > 100 µM
- GI50 (HL-60): > 100 µM (inactive)
- GI50 (HOP-62): > 100 µM (inactive)
- GI50 (HOP-92): > 100 µM (inactive)
- GI50 (HT-29): > 100 µM (inactive)
- GI50 (Hs-578T): > 100 µM (inactive)
- GI50 (IGROV-1): > 100 µM (inactive)
- GI50 (K562): > 100 µM (inactive)
- GI50 (KM12): > 100 µM (inactive)
- GI50 (LOX IMVI): > 100 µM (inactive)
- GI50 (M14): > 100 µM (inactive)
- GI50 (MCF7): > 100 µM (inactive)
- GI50 (MDA-MB-231): > 100 µM (inactive)
- GI50 (MDA-MB-435): > 100 µM (inactive)
- GI50 (MDA-N): > 100 µM (inactive)
- GI50 (MOLT-4): 70.6 µM (inactive)
- GI50 (Malme-3M): > 100 µM (inactive)
- GI50 (NCI-H226): > 100 µM (inactive)
- GI50 (NCI-H23): > 100 µM (inactive)
- GI50 (NCI-H460): > 100 µM (inactive)
- GI50 (NCI-H522): 62.8 µM (inactive)
- GI50 (NCI/ADR-RES): > 100 µM (inactive)
- GI50 (OVCAR-3): > 100 µM (inactive)
- GI50 (OVCAR-4): > 100 µM (inactive)
- GI50 (OVCAR-5): > 100 µM (inactive)
- GI50 (OVCAR-8): > 100 µM (inactive)
- GI50 (PC-3): > 100 µM (inactive)
- GI50 (RPMI-8226): > 100 µM (inactive)
- GI50 (RXF 393): > 100 µM (inactive)
- GI50 (SF-268): > 100 µM (inactive)
- GI50 (SF-295): > 100 µM (inactive)
- GI50 (SF-539): > 100 µM (inactive)
- GI50 (SK-MEL-28): > 100 µM (inactive)
- GI50 (SK-MEL-2): > 100 µM (inactive)
- GI50 (SK-MEL-5): > 100 µM (inactive)
- GI50 (SK-OV-3): > 100 µM (inactive)
- GI50 (SN12C): > 100 µM (inactive)
- GI50 (SNB-19): > 100 µM (inactive)
- GI50 (SNB-75): > 100 µM (inactive)
- GI50 (SR): > 100 µM (inactive)
- GI50 (SW-620): > 100 µM (inactive)
- GI50 (T47D): > 100 µM (inactive)
- GI50 (TK-10): > 100 µM (inactive)
- GI50 (U-251): > 100 µM (inactive)
- GI50 (UACC-257): > 100 µM (inactive)
- GI50 (UACC-62): > 100 µM (inactive)

Structure (SMILES): Cc1c2cccc-2ccc2c1[nH]c1ccc(Br)cc12
- GI50 (786-0): 14.3 µM (inactive)
- GI50 (A498): 21.8 µM (inactive)
- GI50 (A549): 4.2 µM (inactive)
- GI50 (ACHN): 12.1 µM (inactive)
- GI50 (BT-549): 7.03 µM (inactive)
- GI50 (CAKI-1): 11.8 µM (inactive)
- GI50 (CCRF-CEM): 3.12 µM (inactive)
- GI50 (COLO 205): 2.06 µM (inactive)
- GI50 (DU-145): 10.9 µM (inactive)
- GI50 (EKVX): 1.78 µM (inactive)
- GI50 (HCC 2998): 15.2 µM (inactive)
- GI50 (HCT-116): 4.85 µM (inactive)
- GI50 (HCT-15): 3.62 µM
- GI50 (HL-60): 4.15 µM (inactive)
- GI50 (HOP-62): 6.43 µM (inactive)
- GI50 (HOP-92): 3.61 µM (inactive)
- GI50 (HT-29): 13.2 µM (inactive)
- GI50 (Hs-578T): 5.86 µM (inactive)
- GI50 (IGROV-1): 2.56 µM (inactive)
- GI50 (K562): 2.96 µM (inactive)
- GI50 (KM12): 2.47 µM (inactive)
- GI50 (LOX IMVI): 4.44 µM (inactive)
- GI50 (M14): 6.12 µM (inactive)
- GI50 (MCF7): 4.06 µM (inactive)
- GI50 (MDA-MB-231): 4.33 µM (inactive)
- GI50 (MDA-MB-435): 4.7 µM (inactive)
- GI50 (MDA-N): 6.32 µM (inactive)
- GI50 (Malme-3M): 9.86 µM (inactive)
- GI50 (NCI-H226): 2.04 µM (inactive)
- GI50 (NCI-H23): 6.44 µM (inactive)
- GI50 (NCI-H460): 4.56 µM (inactive)
- GI50 (NCI-H522): 2.48 µM (inactive)
- GI50 (NCI/ADR-RES): 9.59 µM (inactive)
- GI50 (OVCAR-3): 3.84 µM (inactive)
- GI50 (OVCAR-4): 1.96 µM (inactive)
- GI50 (OVCAR-5): 3.94 µM (inactive)
- GI50 (OVCAR-8): 7.36 µM (inactive)
- GI50 (PC-3): 4.18 µM (inactive)
- GI50 (RPMI-8226): 3.15 µM (inactive)
- GI50 (SF-268): 4.6 µM (inactive)
- GI50 (SF-295): 4.23 µM (inactive)
- GI50 (SF-539): 4.81 µM (inactive)
- GI50 (SK-MEL-28): 7.03 µM (inactive)
- GI50 (SK-MEL-2): 5.62 µM (inactive)
- GI50 (SK-MEL-5): 3.9 µM (inactive)
- GI50 (SK-OV-3): 14.7 µM (inactive)
- GI50 (SN12C): 12.9 µM (inactive)
- GI50 (SNB-19): 7.64 µM (inactive)
- GI50 (SNB-75): 2.21 µM (inactive)
- GI50 (SR): 3.04 µM (inactive)
- GI50 (SW-620): 4.75 µM (inactive)
- GI50 (T47D): 1.69 µM (inactive)
- GI50 (TK-10): 17.1 µM (inactive)
- GI50 (U-251): 3.21 µM (inactive)
- GI50 (UACC-257): 24.2 µM (inactive)
- GI50 (UACC-62): 13 µM (inactive)
- GI50 (UO-31): 4.65 µM (inactive)

Structure (SMILES): CCCCCCCCCCCCOC1C(COCCN2CCCC2)OC2OC(C)(C)OC21 (centres undefined)
- GI50 (786-0): 1.68 µM (inactive)
- GI50 (A498): 14 µM (inactive)
- GI50 (A549): 4.42 µM (inactive)
- GI50 (ACHN): 3.35 µM (inactive)
- GI50 (BT-549): 1.66 µM (inactive)
- GI50 (CAKI-1): 1.6 µM (inactive)
- GI50 (CCRF-CEM): 1.86 µM (inactive)
- GI50 (COLO 205): 1.82 µM (inactive)
- GI50 (DU-145): 10.9 µM (inactive)
- GI50 (EKVX): 3.18 µM (inactive)
- GI50 (HCT-116): 1.75 µM (inactive)
- GI50 (HCT-15): 1.76 µM
- GI50 (HL-60): 0.927 µM (active)
- GI50 (HOP-62): 1.8 µM (inactive)
- GI50 (HOP-92): 1.39 µM (inactive)
- GI50 (HT-29): 1.55 µM (inactive)
- GI50 (Hs-578T): 1.76 µM (inactive)
- GI50 (IGROV-1): 1.72 µM (inactive)
- GI50 (K562): 1.23 µM (inactive)
- GI50 (LOX IMVI): 1.4 µM (inactive)
- GI50 (M14): 1.85 µM (inactive)
- GI50 (MCF7): 1.71 µM (inactive)
- GI50 (MDA-MB-231): 1.5 µM (inactive)
- GI50 (MDA-MB-435): 1.76 µM (inactive)
- GI50 (MDA-N): 1.41 µM (inactive)
- GI50 (MOLT-4): 1.92 µM (inactive)
- GI50 (Malme-3M): 1.92 µM (inactive)
- GI50 (NCI-H226): 2.56 µM (inactive)
- GI50 (NCI-H23): 1.72 µM (inactive)
- GI50 (NCI-H522): 1.23 µM (inactive)
- GI50 (NCI/ADR-RES): 1.73 µM (inactive)
- GI50 (OVCAR-3): 1.62 µM (inactive)
- GI50 (OVCAR-4): 2.03 µM (inactive)
- GI50 (OVCAR-5): 1.51 µM (inactive)
- GI50 (OVCAR-8): 1.64 µM (inactive)
- GI50 (PC-3): 1.65 µM (inactive)
- GI50 (RPMI-8226): 2.52 µM (inactive)
- GI50 (RXF 393): 1.57 µM (inactive)
- GI50 (SF-268): 2 µM (inactive)
- GI50 (SF-295): 1.86 µM (inactive)
- GI50 (SF-539): 1.76 µM (inactive)
- GI50 (SK-MEL-28): 1.72 µM (inactive)
- GI50 (SK-MEL-2): 1.71 µM (inactive)
- GI50 (SK-MEL-5): 1.6 µM (inactive)
- GI50 (SK-OV-3): 1.63 µM (inactive)
- GI50 (SN12C): 1.82 µM (inactive)
- GI50 (SNB-19): 2.94 µM (inactive)
- GI50 (SNB-75): 1.83 µM (inactive)
- GI50 (SR): 1.14 µM (inactive)
- GI50 (T47D): 2.07 µM (inactive)
- GI50 (TK-10): 1.66 µM (inactive)
- GI50 (U-251): 1.73 µM (inactive)
- GI50 (UACC-257): 1.75 µM (inactive)
- GI50 (UACC-62): 1.91 µM (inactive)
- GI50 (UO-31): 1.6 µM (inactive)
